From patent US20030124643A1, “Method and kit forrapid concurrent identification and antimicrobial susceptibility testing of microorganisms from broth culture” (priority 2001, published 2003)

How the values were obtained:
E. coli = assay: Kit plate disk-quarter diffusion AST, mixed culture; assay type: cell-based; conditions: mixed culture with Staph. aureus, Cephalothin chamber 70', region confirmed by gram stain, FIG. 37
Description: (§1) FIGS. 37A to 37C illustrates the growth of two microorganisms, Staph. aureus and E. coli, on the same preferred embodiment kit plate. FIGS. 37B and 37C are two different views of an enlargement of the AST test chambers (67′-70′ and 72′-75′). FIG. 37B viewed with back lighting. FIG. 37C viewed with front lighting. Two AST test chambers are featured in these figures: Mueller Hinton agar plus antimicrobial Cephalothin chamber 70′ and Mueller Hinton agar plus antimicrobial Enrofloxicin chamber 73′. Two margins are observable in each chamber: E coli & cephalothin margin 180 and Staph. aureus & cephalothin margin 181 for Cephalothin chamber 70′; and Staph. aureus & Enrofloxicin margin 182 and E. coli & Enrofloxicin margin 183 for Enrofloxicin chamber 73′. The region 176A is between the E. coli margin 180 and Staph. aureus margin 181 in Cephalothin chamber 70′. The region 178A is between the Staph. aureus margin 182 and the E. coli margin 183 in Enrofloxicin chamber 73′. Illustrated in FIG. 38 are two gram stains 176B and 178B of a sample from regions 176A and 178A respectively.
(§2) […] of this dilution is added per chamber. FIG. 17 illustrates the first chamber of the top two rows inoculated using dilution 140. Eighty micro liters of dilution 140 is added per chamber to the ten upper test chambers. […]

Staph. aureus = assay: as above; assay type: cell-based; conditions: mixed culture with E. coli, Enrofloxicin chamber 73', region confirmed by gram stain, FIG. 37
Description: as §1, §2

## CC(=O)OCC1=C(C(=O)O)N2C(=O)[C@@H](NC(=O)Cc3cccs3)[C@H]2SC1 [Cephalothin]
E. coli
  AST result in growth region 176A, between margins 180 and 181: resistance

## CCN1CCN(c2cc3c(cc2F)c(=O)c(C(=O)O)cn3C2CC2)CC1 [Enrofloxicin]
Staph. aureus
  AST result in growth region 178A, between margins 182 and 183: resistance
